From patent US20090233796A1, “HERBICIDAL COMPOSITION” (SYNGENTA CROP PROTECTION, INC., priority 2004, published 2009)

Columns and labels:
Assay type in all cases: in vivo
CONYZA SP. = experiment: Compound (A) with paraquat, weed plots; conditions: 5 DAA
Description: (§1) In these tests, various weeds were treated with paraquat alone at rates equivalent to 700 g per hectare and 840 g per hectare, compound (A) alone at rates equivalent to 10 g per hectare and 20 g per hectare, and with a mixture of paraquat and compound (A) at rates equivalent to the sum of these. The compositions were formulated as an emulsifyable concentrate (EC).
(§2) The results in the table under each application are the percentage of the weeds plants that were killed.

CYPERUS ROTUNDUS = experiment: Compound (A) with paraquat, weed plots; conditions: 56 DAA, No. 1.11
Description: as §1, §2

DIGITARIA CILIARIS = experiment: Compound (A) with paraquat, weed plots; conditions: 20 g/ha; 51 DAA; No. 1.7
Description: as §1, §2

E[…]-GALLI = experiment: Compound (A) with paraquat, weed plots; conditions: 51 DAA, No. 1.8
Description: as §1, §2

LAMIUM PURPUREUM = experiment: Compound (A) with paraquat, weed plots; conditions: 2 DAA, No. 1.5
Description: as §1, §2

LOLIUM RIGIDUM = experiment: Compound (A) with paraquat, weed plots; conditions: 41 DAA, No. 1.4
Description: as §1, §2

SETARIA SP. = experiment: Compound (A) with paraquat, weed plots; conditions: 27 DAA, No. 1.2
Description: as §1, §2

SETARIA VIRIDIS = experiment: Compound (A) with paraquat, weed plots; conditions: 43 DAA, No. 1.3
Description: as §1, §2

SONCHUS ASPER = experiment: Compound (A) with paraquat, weed plots; conditions: 32 DAA, No. 1.10
Description: as §1, §2

VERONICA PERSICA = experiment: Compound (A) with paraquat, weed plots; conditions: 69 DAA, No. 1.6
Description: as §1, §2

CYNODON DACTYLON = experiment: Compound (A) with glyphosate, weed plots; conditions: 82 DAA, No. 2.1
Description: (§3) The compositions were formulated as an emulsifyable concentrate (EC).
(§4) The results in the table under each application are the percentage of the plants that were killed.

DIGITARIA SANGUINALIS = experiment: Compound (A) with glyphosate, weed plots; conditions: 52 DAA, No. 2.2
Description: as §3, §4

ABUTILON THEOPHRASTI [1] = experiment: Compound (A) with nicosulfuron, weed plots; conditions: 27 DAA, No. 3.13
Description: (§5) In these tests, various weeds were treated with nicosulfuron alone at a rate equivalent to 35 g per hectare, […] and Compound (A) at rates equivalent to the sum of these. The compositions were formulated as an emulsifyable concentrate (EC).
as §4

BRACHIARIA PLATYPHYLLA = experiment: Compound (A) with nicosulfuron, weed plots
Description: as §5, §4

CYPERUS ESCULENTUS = experiment: Compound (A) with nicosulfuron, weed plots
Description: as §5, §4

IPOMOEA SP. = experiment: Compound (A) with nicosulfuron, weed plots; conditions: 5 DAA, No. 3.10
Description: as §5, §4

SESBANIA EXALTATA = experiment: Compound (A) with nicosulfuron, weed plots
Description: as §5, §4

[…] = Compound (A) with nicosulfuron, weed plots; conditions: 58 DAA, No. 3.12
Description: as §5, §4

Euphorbia = experiment: Compound (A) with primisulfuron, weed plots; conditions: 45 DAA, Trial 3.20
Description: In these tests, […] and Compound (A) at rates equivalent to the sum of these. The compositions were formulated as an emulsifiable concentrate (EC).
(§6) The results in the tables under each application are the percentage of the plants that were killed.

Ipomoea = experiment: Compound (A) with primisulfuron, weed plots; conditions: 44 DAA, Trial 3.21
Description: In these tests, various weeds were treated with primisulfuron alone at a rate equivalent to 35 g per hectare, […] and Compound (A) at rates equivalent to the sum of these. The compositions were formulated as an emulsifiable concentrate (EC).
as §6

ABUTILON THEOPHRASTI [2] = experiment: Compound (A) with S-metolachlor, weed plots
Description: […] The compositions were formulated as an emulsifyable concentrate (EC).
as §4

**Q.** Which results are given for `CCOC(=O)COc1ncccc1Oc1cc(-n2c(=O)cc(C(F)(F)F)n(C)c2=O)c(F)cc1Cl` [Compound (A)]?
**A.** percentage of the weeds plants that were killed (CONYZA SP.; 10 g/ha, No. 1.1): 37%; percentage of the weeds plants that were killed (CONYZA SP.; 10 g/ha, No. 1.9): 37%; percentage of the weeds plants that were killed (CONYZA SP.; 20 g/ha, No. 1.1): 40%; percentage of the weeds plants that were killed (CONYZA SP.; 20 g/ha, No. 1.9): 40%; percentage of the weeds plants that were killed (CYPERUS ROTUNDUS; 10 g/ha): 0%; percentage of the weeds plants that were killed (CYPERUS ROTUNDUS; 20 g/ha): 0%; percentage of the weeds plants that were killed (DIGITARIA CILIARIS): 0%; percentage of the weeds plants that were killed (E[…]-GALLI; 10 g/ha): 0%; percentage of the weeds plants that were killed (E[…]-GALLI; 20 g/ha): 0%; percentage of the weeds plants that were killed (LAMIUM PURPUREUM; 10 g/ha): 30%; percentage of the weeds plants that were killed (LAMIUM PURPUREUM; 20 g/ha): 33%; percentage of the weeds plants that were killed (LOLIUM RIGIDUM; 10 g/ha): 27%; percentage of the weeds plants that were killed (LOLIUM RIGIDUM; 20 g/ha): 47%; percentage of the weeds plants that were killed (SETARIA SP.; 10 g/ha): 0%; percentage of the weeds plants that were killed (SETARIA SP.; 20 g/ha): 25%; percentage of the weeds plants that were killed (SETARIA VIRIDIS; 10 g/ha): 0%; percentage of the weeds plants that were killed (SETARIA VIRIDIS; 20 g/ha): 23%; percentage of the weeds plants that were killed (SONCHUS ASPER; 10 g/ha): 60%; percentage of the weeds plants that were killed (SONCHUS ASPER; 20 g/ha): 55%; percentage of the weeds plants that were killed (VERONICA PERSICA; 10 g/ha): 25%; percentage of the weeds plants that were killed (VERONICA PERSICA; 20 g/ha): 100%; percentage of the plants that were killed (CYNODON DACTYLON; 10 g/ha): 0%; percentage of the plants that were killed (CYNODON DACTYLON; 20 g/ha): 0%; percentage of the plants that were killed (DIGITARIA SANGUINALIS; 10 g/ha): 0%; percentage of the plants that were killed (DIGITARIA SANGUINALIS; 20 g/ha): 0%; percentage of the plants that were killed (ABUTILON THEOPHRASTI [1]; 5 g/ha): 0%; percentage of the plants that were killed (ABUTILON THEOPHRASTI [1]; 10 g/ha): 98%; percentage of the plants that were killed (ABUTILON THEOPHRASTI [1]; 20 g/ha): 99%; percentage of the plants that were killed (BRACHIARIA PLATYPHYLLA; 5 g/ha, 24 DAA, No. 3.16): 0%; percentage of the plants that were killed (BRACHIARIA PLATYPHYLLA; 5 g/ha, 30 DAA, No. 3.17): 0%; percentage of the plants that were killed (BRACHIARIA PLATYPHYLLA; 10 g/ha, 24 DAA, No. 3.16): 0%; percentage of the plants that were killed (BRACHIARIA PLATYPHYLLA; 10 g/ha, 30 DAA, No. 3.17): 0%; percentage of the plants that were killed (BRACHIARIA PLATYPHYLLA; 20 g/ha, 24 DAA, No. 3.16): 0%; percentage of the plants that were killed (BRACHIARIA PLATYPHYLLA; 20 g/ha, 30 DAA, No. 3.17): 0%; percentage of the plants that were killed (CYPERUS ESCULENTUS; 5 g/ha, 7 DAA, No. 3.7): 40%; percentage of the plants that were killed (CYPERUS ESCULENTUS; 5 g/ha, 12 DAA, No. 3.9): 0%; percentage of the plants that were killed (CYPERUS ESCULENTUS; 10 g/ha, 7 DAA, No. 3.7): 60%; percentage of the plants that were killed (CYPERUS ESCULENTUS; 10 g/ha, 12 DAA, No. 3.9): 0%; percentage of the plants that were killed (CYPERUS ESCULENTUS; 20 g/ha, 7 DAA, No. 3.7): 60%; percentage of the plants that were killed (CYPERUS ESCULENTUS; 20 g/ha, 12 DAA, No. 3.9): 30%; percentage of the plants that were killed (IPOMOEA SP.; 5 g/ha): 30%; percentage of the plants that were killed (IPOMOEA SP.; 10 g/ha): 80%; percentage of the plants that were killed (IPOMOEA SP.; 20 g/ha): 95%; percentage of the plants that were killed (SESBANIA EXALTATA; 5 g/ha, 44 DAA, No. 3.3): 75%; percentage of the plants that were killed (SESBANIA EXALTATA; 5 g/ha, 45 DAA, No. 3.2): 65%; percentage of the plants that were killed (SESBANIA EXALTATA; 10 g/ha, 44 DAA, No. 3.3): 85%; percentage of the plants that were killed (SESBANIA EXALTATA; 10 g/ha, 45 DAA, No. 3.2): 85%; percentage of the plants that were killed (SESBANIA EXALTATA; 20 g/ha, 44 DAA, No. 3.3): 90%; percentage of the plants that were killed (SESBANIA EXALTATA; 20 g/ha, 45 DAA, No. 3.2): 90%; percentage of the plants that were killed ([…]; 5 g/ha): 50%; percentage of the plants that were killed ([…]; 10 g/ha): 70%; percentage of the plants that were killed ([…]; 20 g/ha): 97%; percentage of the plants that were killed (Euphorbia; 1.25 g/ha): 50%; percentage of the plants that were killed (Euphorbia; 2.5 g/ha): 70%; percentage of the plants that were killed (Euphorbia; 5 g/ha): 70%; percentage of the plants that were killed (Ipomoea; 1.25 g/ha): 80%; percentage of the plants that were killed (Ipomoea; 2.5 g/ha): 100%; percentage of the plants that were killed (Ipomoea; 5 g/ha): 100%; percentage of the plants that were killed (ABUTILON THEOPHRASTI [2]; 20 g/ha, 15 DAA, Trial 4.12): 25%; percentage of the plants that were killed (ABUTILON THEOPHRASTI [2]; 20 g/ha, 23 DAA, Trial 4.3): 43%; percentage of the plants that were killed (ABUTILON THEOPHRASTI [2]; 20 g/ha, 38 DAA, Trial 4.4): 35%; percentage of the plants that were killed (ABUTILON THEOPHRASTI [2]; 20 g/ha, 56 DAA, Trial 4.13): 0%; percentage of the plants that were killed (ABUTILON THEOPHRASTI [2]; 40 g/ha, 15 DAA, Trial 4.12): 88%; percentage of the plants that were killed (ABUTILON THEOPHRASTI [2]; 40 g/ha, 23 DAA, Trial 4.3): 78%; percentage of the plants that were killed (ABUTILON THEOPHRASTI [2]; 40 g/ha, 38 DAA, Trial 4.4): 70%; percentage of the plants that were killed (ABUTILON THEOPHRASTI [2]; 40 g/ha, 56 DAA, Trial 4.13): 13%
